Legend:
[1] = Propylene hydroformylation rate and colour of (TPP)3 Rh(CO)H catalyst after thermal treatment; settings: for hydroformylation rate: 100° C.
Protocol: TPP is triphenylphosphine. 15 grams of this bright yellow solution was charged to a Fisher Porter bottle under inert gas. To this solution was added 20 psi of butadiene with stirring. The pressure dropped as the butadiene dissolved into the solution. The reactor was repressured twice with butadiene (20 psig) and then the reaction was place under a total of 45 psig with nitrogen. The solution was heated to 120° C. for 15 minutes. […] At ambient temperature, the reaction was placed under vacuum for 4 hours to remove any excess butadiene.
Since the solvent has a very high boiling point, the concentration of rhodium was assumed to have remained unchanged while under vacuum. Indeed, no change in volume was detected visually while under vacuum. 15.0 milliliters of the 275 parts per million solution was charged to a 100 milliliter autoclave.
This example is a control for Example 23. 15 grams of the catalyst solution prepared in Example 23 was charged to a Fisher Porter bottle under inert gas. 45 psig of nitrogen was added to the reaction vessel, then the reaction was heated to 120° C. for 15 minutes. […] 15.0 milliliters of the 275 parts per million solution was charged to a 100 milliliter autoclave.
A catalyst solution was prepared by adding 113 milligrams of (TPP)3 Rh(CO)H to 40.4 grams Filmer IBT® available from Union Carbide Corporation, Danbury, Conn., resulting in a rhodium concentration of 312 parts per million. At this point, the rhodium complex was a suspended in the solvent. Approximately 20 grams of this solution of (TPP)3 Rh(CO)H in tetraglyme was charged to a Fisher Porter bottle under inert gas. To this solution was added 30 psi of butadiene with stirring. The pressure dropped to 20 psig as the butadiene dissolved into the solution. The reactor was repressured twice with butadiene (30 psig) and then the pressure was adjusted to 60 psig with nitrogen. The solution was placed into 140° C. oil bath, which caused the reaction to become homogeneous within a minute. The reaction was maintained at 140° C. for 50 minutes. […] The reaction vessel was removed from the oil bath and the butadiene was vented from the reactor while the reaction was hot. After gas evolution ceased, the reaction vessel was placed carefully placed under dynamic vacuum until gas evolution had ceased for 10 minutes. The reaction was then placed under a slight positive pressure of nitrogen. […] 15.0 milliliters of the 284 parts per million solution was charged to a 100 milliliter autoclave.
This example serves as a control for Example 25. Approximately 20 grams of the solution prepared in Example 25 was charged to a Fisher Porter bottle under inert gas. 60 psig of nitrogen was added to the reaction vessel, then the reaction was heated to 140° C. for approximately 110 minutes. […] This solution was place into and out of the oil bath at the same time as the solution in Example 25. After thermal treatment, 10 weight percent of triphenylphosphine was added to the reaction mixture. […] 15 milliliters of the 284 parts per million solution was charged to a 100 milliliter autoclave.

[2] = Decomposition of free Ligand F and deactivated complex formation at 145° C. by HPLC (FIG. 3); type: physicochemical; settings: for deactivated complex concentration / free Ligand F concentration: 45 psig, treated with 1 ml 1,3-butadiene
Protocol: A catalyst solution (5 milliliters), 600 parts per million in rhodium and 0.8 weight percent in Ligand F generated as in Example 2 was charged to a 3 ounce Fisher Porter bottle and alternately flushed evacuated with nitrogen, then placed in a 145° C. oil bath under nitrogen (80 psig total pressure) and then monitored by HPLC at 1 and 3 hours for the Ligand F and deactivated complex concentrations. The free Ligand F concentration was 0.75, 0.57 and 0.37 weight percent at 0, 1 and 3 hours, respectively, while the deactivated complex concentration was 0.010, 0.57 and 0.89 weight percent at 0, 1 and 3 hours respectively.
The same procedure as in Example 21 was followed except the catalyst solution was treated with 1 milliliter of 1,3-butadiene and then heated at 145° C. for 3 hours (45 psig total pressure). The free Ligand F concentration measured by HPLC (high pressure liquid chromatography) was 0.75, 0.66, and 0.62 weight percent at 0, 1 and 3 hours, respectively, while the deactivated complex concentration was 0.010, 0.012, and 0.05 weight percent at 0, 1 and 3 hours respectively.

For `C=CC=C` [Butadiene, 1,3-butadiene], the “color change of catalyst solution” value ([1]; 120° C. for 15 minutes under butadiene/nitrogen) was “No color change was observed”, the “color of catalyst solution” value ([1]; 140° C. for 50 minutes under butadiene/nitrogen) was “maintained a bright yellow color” and the “color change of catalyst solution” value ([1]; 140° C. for further 60 minutes, butadiene removed) was “no observable color change”. The hydroformylation rate ([1]; after 120° C. for 15 minutes with butadiene, 275 ppm Rh, 9.1 wt% triphenylphosphine, 115 psig) was 1.4 gmol/L-h, the hydroformylation rate ([1]; after 140° C. for 50 minutes with butadiene and 60 minutes after venting, 284 ppm Rh, 95 psig) was 1.0 gmol/L-h and the deactivated complex concentration ([2]; 0 hours) was 0.010 weight percent. The “free Ligand F concentration” value ([2]; 0 hours) was 0.75 weight percent, the deactivated complex concentration ([2]; 1 hour) was 0.012 weight percent and the “free Ligand F concentration” value ([2]; 1 hour) was 0.66 weight percent. The deactivated complex concentration ([2]; 3 hours) was 0.05 weight percent, the “free Ligand F concentration” value ([2]; 3 hours) was 0.62 weight percent and the “decomposition of free Ligand F (FIG. 3)” value ([2]; prior complexation of catalyst with butadiene) was “suppresses decomposition of free Ligand F”.

Source: patent US6090987A, “Metal-ligand complex catalyzed processes” (Union Carbide Chemicals & Plastics Technology Corporation, priority 1998, dated 2000)
